Test: Inhibition of human IL-17A binding to recombinant human Fc-tagged IL-17RA preincubated with IL-17A for 30 mins followed by receptor addition and measured after 90 mins by AlphaLISA plate reader analysis

| IC50 | SMILES |
| --- | --- |
| 6 nM | CC[C@H](c1ccnc(NC(=O)[C@H](NC(=O)c2ccnn2C)[C@H]2CC[C@H](C)CC2)c1)N1C[C@@H](C(F)(F)F)NC1=O |
| 11 nM | COCC(c1ccnc(NC(=O)[C@@H](NC(=O)c2nonc2C2CC2)[C@H]2CC[C@H](C)CC2)c1)N1C[C@@H](C(F)(F)F)NC1=O (some centres undefined) |
| 465 nM | CCc1ncoc1C(=O)N[C@H](C(=O)Nc1cc(C[C@H]2C[C@@H](C(F)(F)F)NC2=O)ccn1)C1CCC(F)(F)CC1 |
| 148 nM | CC(C)(C)OC(=O)N[C@H](C(=O)Nc1cc(CN2C[C@@H](C(F)(F)F)NC2=O)ccn1)[C@H]1CC[C@H](C)CC1 |
| 25 nM | C[C@H]1CC[C@H]([C@H](NC(=O)c2nonc2C2CC2)C(=O)Nc2cc(CN3C[C@@H](C(F)(F)F)NC3=O)ccn2)CC1 |
| 1360 nM | COCC(NC(=O)CCC(F)(F)F)c1ccnc(NC(=O)[C@@H](NC(=O)c2ccnn2C(C)C)C2CCC(F)(F)CC2)c1 (some centres undefined) |
| 4 nM | CCc1nonc1C(=O)N[C@H](C(=O)Nc1cc(C(COC)N2C[C@@H](C(F)(F)F)NC2=O)ccn1)[C@H]1CC[C@H](C)CC1 (some centres undefined) |
| 17 nM | CCc1nonc1C(=O)NC(C(=O)Nc1cc([C@@H](COC)N2C[C@@H](C(F)(F)F)NC2=O)ccn1)C1CCC(F)CC1 (some centres undefined) |
| 8970 nM | Cn1nccc1C(=O)N[C@H](C(=O)Nc1cc(OC2CCNC2=O)ccn1)[C@H]1CC[C@H](C)CC1 (some centres undefined) |
| 19 nM | CCc1nonc1C(=O)N[C@H](C(=O)Nc1cc([C@@H](COC)N2CC(F)(F)CNC2=O)ccn1)C1CCC(F)(F)CC1 |
| 51 nM | CCc1nocc1C(=O)N[C@H](C(=O)Nc1cc([C@@H](COC)N2C[C@@H](C(F)(F)F)NC2=O)ccn1)[C@H]1CCCC(F)(F)C1 |
| 18 nM | CCC[C@H](c1ccnc(NC(=O)[C@@H](NC(=O)c2nocc2CC)C2CCC(F)(F)CC2)c1)N1C[C@@H](C(F)(F)F)NC1=O |
| 105 nM | CC1(C)CN(Cc2ccnc(NC(=O)[C@@H](NC(=O)c3nonc3C3CC3)[C@H]3CC[C@H](C)CC3)c2)C(=O)N1 |
| 1210 nM | CC(C)n1nccc1C(=O)N[C@H](C(=O)Nc1cc(O[C@@H]2C[C@@H](C(F)(F)F)NC2=O)ccn1)[C@H]1CC[C@H](C)CC1 |

Reference: ChEMBL document CHEMBL6074706, “Inhibition of the Binding of Interleukin 17A with Interleukin 17A Receptor as a Treatment for Immune System and Inflammation Disorders, Cancer, and Neurodegenerative Diseases” (ACS Med Chem Lett, 2024)
